Laboratory results published in patent US20220248678A1, “HERBICIDAL COMPOUNDS” (SYNGENTA CROP PROTECTION AG, priority 2019, published 2022).

tested on: Amaranthus palmeri (AMAPA); test: Post-emergence efficacy, glasshouse; type: in vivo; settings: 125 g/Ha, after 13 days, 100=total damage to plant, 0=no damage to plant
Description: (§1) Seeds of a variety of test species were shown in standard soil in pots. After cultivation for 14 days (post-emergence) under controlled conditions in a glasshouse (at 24/16° C., day/night; 14 hours light; 65% humidity), the plants were sprayed with an aqueous spray solution derived from the dissolution of the technical active ingredient for each of compounds 1 to 26 from Table A above, in a small amount of acetone and a special solvent and emulsifier mixture referred to as IF50 (11.12% Emulsogen EL360 TM+44.44% N-methylpyrrolidone+44.44% Dowanol DPM glycol ether), to create a 50 g/I solution which was then diluted to required concentration using 0.25% or 1% Empicol ESC70 (Sodium lauryl ether sulphate)+1% ammonium sulphate in water as diluent. These spray test compositions are described as composition numbers C1 to C26, with the numerical value corresponding to the compound number from Table A.
(§2) The test plants were then grown in a glasshouse under controlled conditions (at 24/16° C., day/night; 14 hours light; 65% humidity) and watered twice daily. After 13 days the test was evaluated (100=total damage to plant; 0=no damage to plant).
(§3) Ipomoea hederacea (IPOHE), Euphorbia heterophylla (EPHHL), Chenopodium album (CHEAL), Amaranthus palmeri (AMAPA), Lolium perenne (LOLPE), Digitaria sanguinalis (DIGSA), Eleusine indica (ELEIN), Echinochloa crus-galli (ECHCG), Setaria faberi (SETFA)

SMILES | Control of weed species AMAPA
C[n+]1cc(P(=O)([O-])OCc2ccc(F)cc2)c2ccccc2n1 [Composition C23] | 20

same assay, conditions: 500 g/Ha, after 13 days, 100=total damage to plant, 0=no damage to plant

SMILES | Control of weed species AMAPA
CCCOP(=O)([O-])c1c[n+](C)nc2ccccc12 [Composition C21] | 100
C=CCOP(=O)([O-])c1c[n+](C)nc2ccccc12 [Composition C5] | 90
COP(=O)([O-])c1c[n+](C)nc2ccc(C(F)(F)F)cc12 [Composition C19] | 10
C[n+]1cc(P(=O)([O-])OCc2ccccc2)c2ccccc2n1 [Composition C22] | 10
CCCCOP(=O)([O-])c1c[n+](C)nc2ccccc12 [Composition C12] | 100

same assay, conditions: 1000 g/Ha, after 13 days, 100=total damage to plant, 0=no damage to plant

SMILES | Control of weed species AMAPA
COc1cccc2c(P(=O)([O-])OC)c[n+](C)nc12 [Composition C18] | 100
C[n+]1cc(P(=O)([O-])OCC(F)(F)F)c2ccccc2n1 [Composition C6] | 100

tested on: Chenopodium album (CHEAL); test: Post-emergence efficacy, glasshouse; type: in vivo; settings: 125 g/Ha, after 13 days, 100=total damage to plant, 0=no damage to plant
Description: as §1, §2, §3

SMILES | Control of weed species CHEAL
C[n+]1cc(P(=O)([O-])OCc2ccc(F)cc2)c2ccccc2n1 [Composition C23] | 10

same assay, conditions: 500 g/Ha, after 13 days, 100=total damage to plant, 0=no damage to plant

SMILES | Control of weed species CHEAL
CCCOP(=O)([O-])c1c[n+](C)nc2ccccc12 [Composition C21] | 100
C=CCOP(=O)([O-])c1c[n+](C)nc2ccccc12 [Composition C5] | 100
COP(=O)([O-])c1c[n+](C)nc2ccc(C(F)(F)F)cc12 [Composition C19] | 10
C[n+]1cc(P(=O)([O-])OCc2ccccc2)c2ccccc2n1 [Composition C22] | 20
CCCCOP(=O)([O-])c1c[n+](C)nc2ccccc12 [Composition C12] | 100

same assay, conditions: 1000 g/Ha, after 13 days, 100=total damage to plant, 0=no damage to plant

SMILES | Control of weed species CHEAL
COc1cccc2c(P(=O)([O-])OC)c[n+](C)nc12 [Composition C18] | 80
C[n+]1cc(P(=O)([O-])OCC(F)(F)F)c2ccccc2n1 [Composition C6] | 100

tested on: Digitaria sanguinalis (DIGSA); test: Post-emergence efficacy, glasshouse; type: in vivo; settings: 125 g/Ha, after 13 days, 100=total damage to plant, 0=no damage to plant
Description: as §1, §2, §3

SMILES | Control of weed species DIGSA
C[n+]1cc(P(=O)([O-])OCc2ccc(F)cc2)c2ccccc2n1 [Composition C23] | 60

same assay, conditions: 500 g/Ha, after 13 days, 100=total damage to plant, 0=no damage to plant

SMILES | Control of weed species DIGSA
CCCOP(=O)([O-])c1c[n+](C)nc2ccccc12 [Composition C21] | 100
C=CCOP(=O)([O-])c1c[n+](C)nc2ccccc12 [Composition C5] | 90
COP(=O)([O-])c1c[n+](C)nc2ccc(C(F)(F)F)cc12 [Composition C19] | 10
C[n+]1cc(P(=O)([O-])OCc2ccccc2)c2ccccc2n1 [Composition C22] | 60
CCCCOP(=O)([O-])c1c[n+](C)nc2ccccc12 [Composition C12] | 70

same assay, conditions: 1000 g/Ha, after 13 days, 100=total damage to plant, 0=no damage to plant

SMILES | Control of weed species DIGSA
COc1cccc2c(P(=O)([O-])OC)c[n+](C)nc12 [Composition C18] | 100
C[n+]1cc(P(=O)([O-])OCC(F)(F)F)c2ccccc2n1 [Composition C6] | 100

tested on: Echinochloa crus-galli (ECHCG); test: Post-emergence efficacy, glasshouse; type: in vivo; settings: 125 g/Ha, after 13 days, 100=total damage to plant, 0=no damage to plant
Description: as §1, §2, §3

SMILES | Control of weed species ECHCG
C[n+]1cc(P(=O)([O-])OCc2ccc(F)cc2)c2ccccc2n1 [Composition C23] | 30

same assay, conditions: 500 g/Ha, after 13 days, 100=total damage to plant, 0=no damage to plant

SMILES | Control of weed species ECHCG
CCCOP(=O)([O-])c1c[n+](C)nc2ccccc12 [Composition C21] | 70
C=CCOP(=O)([O-])c1c[n+](C)nc2ccccc12 [Composition C5] | 90
COP(=O)([O-])c1c[n+](C)nc2ccc(C(F)(F)F)cc12 [Composition C19] | 10
C[n+]1cc(P(=O)([O-])OCc2ccccc2)c2ccccc2n1 [Composition C22] | 20
CCCCOP(=O)([O-])c1c[n+](C)nc2ccccc12 [Composition C12] | 70

same assay, conditions: 1000 g/Ha, after 13 days, 100=total damage to plant, 0=no damage to plant

SMILES | Control of weed species ECHCG
COc1cccc2c(P(=O)([O-])OC)c[n+](C)nc12 [Composition C18] | 100
C[n+]1cc(P(=O)([O-])OCC(F)(F)F)c2ccccc2n1 [Composition C6] | 100

tested on: Eleusine indica (ELEIN); test: Post-emergence efficacy, glasshouse; type: in vivo; settings: 125 g/Ha, after 13 days, 100=total damage to plant, 0=no damage to plant
Description: as §1, §2, §3

SMILES | Control of weed species ELEIN
C[n+]1cc(P(=O)([O-])OCc2ccc(F)cc2)c2ccccc2n1 [Composition C23] | 40

same assay, conditions: 500 g/Ha, after 13 days, 100=total damage to plant, 0=no damage to plant

SMILES | Control of weed species ELEIN
CCCOP(=O)([O-])c1c[n+](C)nc2ccccc12 [Composition C21] | 100
C=CCOP(=O)([O-])c1c[n+](C)nc2ccccc12 [Composition C5] | 100
COP(=O)([O-])c1c[n+](C)nc2ccc(C(F)(F)F)cc12 [Composition C19] | 10
C[n+]1cc(P(=O)([O-])OCc2ccccc2)c2ccccc2n1 [Composition C22] | 60
CCCCOP(=O)([O-])c1c[n+](C)nc2ccccc12 [Composition C12] | 100

same assay, conditions: 1000 g/Ha, after 13 days, 100=total damage to plant, 0=no damage to plant

SMILES | Control of weed species ELEIN
COc1cccc2c(P(=O)([O-])OC)c[n+](C)nc12 [Composition C18] | 100
C[n+]1cc(P(=O)([O-])OCC(F)(F)F)c2ccccc2n1 [Composition C6] | 100

tested on: Euphorbia heterophylla (EPHHL); test: Post-emergence efficacy, glasshouse; type: in vivo; settings: 125 g/Ha, after 13 days, 100=total damage to plant, 0=no damage to plant
Description: as §1, §2, §3

SMILES | Control of weed species EPHHL
C[n+]1cc(P(=O)([O-])OCc2ccc(F)cc2)c2ccccc2n1 [Composition C23] | 40

same assay, conditions: 500 g/Ha, after 13 days, 100=total damage to plant, 0=no damage to plant

SMILES | Control of weed species EPHHL
CCCOP(=O)([O-])c1c[n+](C)nc2ccccc12 [Composition C21] | 100
C=CCOP(=O)([O-])c1c[n+](C)nc2ccccc12 [Composition C5] | 90
COP(=O)([O-])c1c[n+](C)nc2ccc(C(F)(F)F)cc12 [Composition C19] | 0
C[n+]1cc(P(=O)([O-])OCc2ccccc2)c2ccccc2n1 [Composition C22] | 60
CCCCOP(=O)([O-])c1c[n+](C)nc2ccccc12 [Composition C12] | 100

same assay, conditions: 1000 g/Ha, after 13 days, 100=total damage to plant, 0=no damage to plant

SMILES | Control of weed species EPHHL
COc1cccc2c(P(=O)([O-])OC)c[n+](C)nc12 [Composition C18] | 100
C[n+]1cc(P(=O)([O-])OCC(F)(F)F)c2ccccc2n1 [Composition C6] | 100

tested on: Ipomoea hederacea (IPOHE); test: Post-emergence efficacy, glasshouse; type: in vivo; settings: 125 g/Ha, after 13 days, 100=total damage to plant, 0=no damage to plant
Description: as §1, §2, §3

SMILES | Control of weed species IPOHE
C[n+]1cc(P(=O)([O-])OCc2ccc(F)cc2)c2ccccc2n1 [Composition C23] | 10

same assay, conditions: 500 g/Ha, after 13 days, 100=total damage to plant, 0=no damage to plant

SMILES | Control of weed species IPOHE
CCCOP(=O)([O-])c1c[n+](C)nc2ccccc12 [Composition C21] | 100
C=CCOP(=O)([O-])c1c[n+](C)nc2ccccc12 [Composition C5] | 70
COP(=O)([O-])c1c[n+](C)nc2ccc(C(F)(F)F)cc12 [Composition C19] | 0
C[n+]1cc(P(=O)([O-])OCc2ccccc2)c2ccccc2n1 [Composition C22] | 20
CCCCOP(=O)([O-])c1c[n+](C)nc2ccccc12 [Composition C12] | 100

same assay, conditions: 1000 g/Ha, after 13 days, 100=total damage to plant, 0=no damage to plant

SMILES | Control of weed species IPOHE
COc1cccc2c(P(=O)([O-])OC)c[n+](C)nc12 [Composition C18] | 80
C[n+]1cc(P(=O)([O-])OCC(F)(F)F)c2ccccc2n1 [Composition C6] | 100

tested on: Lolium perenne (LOLPE); test: Post-emergence efficacy, glasshouse; type: in vivo; settings: 125 g/Ha, after 13 days, 100=total damage to plant, 0=no damage to plant
Description: as §1, §2, §3

SMILES | Control of weed species LOLPE
C[n+]1cc(P(=O)([O-])OCc2ccc(F)cc2)c2ccccc2n1 [Composition C23] | 10

same assay, conditions: 500 g/Ha, after 13 days, 100=total damage to plant, 0=no damage to plant

SMILES | Control of weed species LOLPE
CCCOP(=O)([O-])c1c[n+](C)nc2ccccc12 [Composition C21] | 70
C=CCOP(=O)([O-])c1c[n+](C)nc2ccccc12 [Composition C5] | 60
COP(=O)([O-])c1c[n+](C)nc2ccc(C(F)(F)F)cc12 [Composition C19] | 10
C[n+]1cc(P(=O)([O-])OCc2ccccc2)c2ccccc2n1 [Composition C22] | 10
CCCCOP(=O)([O-])c1c[n+](C)nc2ccccc12 [Composition C12] | 40

same assay, conditions: 1000 g/Ha, after 13 days, 100=total damage to plant, 0=no damage to plant

SMILES | Control of weed species LOLPE
COc1cccc2c(P(=O)([O-])OC)c[n+](C)nc12 [Composition C18] | 80
C[n+]1cc(P(=O)([O-])OCC(F)(F)F)c2ccccc2n1 [Composition C6] | 80

tested on: Setaria faberi (SETFA); test: Post-emergence efficacy, glasshouse; type: in vivo; settings: 125 g/Ha, after 13 days, 100=total damage to plant, 0=no damage to plant
Description: as §1, §2, §3

SMILES | Control of weed species SETFA
C[n+]1cc(P(=O)([O-])OCc2ccc(F)cc2)c2ccccc2n1 [Composition C23] | 30

same assay, conditions: 500 g/Ha, after 13 days, 100=total damage to plant, 0=no damage to plant

SMILES | Control of weed species SETFA
CCCOP(=O)([O-])c1c[n+](C)nc2ccccc12 [Composition C21] | 100
C=CCOP(=O)([O-])c1c[n+](C)nc2ccccc12 [Composition C5] | 80
COP(=O)([O-])c1c[n+](C)nc2ccc(C(F)(F)F)cc12 [Composition C19] | 10
C[n+]1cc(P(=O)([O-])OCc2ccccc2)c2ccccc2n1 [Composition C22] | 30
CCCCOP(=O)([O-])c1c[n+](C)nc2ccccc12 [Composition C12] | 70

same assay, conditions: 1000 g/Ha, after 13 days, 100=total damage to plant, 0=no damage to plant

SMILES | Control of weed species SETFA
COc1cccc2c(P(=O)([O-])OC)c[n+](C)nc12 [Composition C18] | 100
C[n+]1cc(P(=O)([O-])OCC(F)(F)F)c2ccccc2n1 [Composition C6] | 90
